Tested on: AKT Tyr176-phosphorylation
Assay: Cell fractionation and immunoblotting of pTyr176-AKT in MCF-7 cells
Format: cell-based, human
Conditions: MCF-7 cells serum starved 24 h; insulin 50 ng/ml or heregulin 30 ng/ml
Protocol: (§1) FIG. 27 is a blot showing Tyr176-phosphorylation regulates AKT plasma membrane localization. MCF-7 cells were serum starved (24 h) and treated with insulin (50 ng/ml) or for indicated times. Cell lysates were fractionated and IB with the indicated antibodies. Input panels pAck1 (Tyr), pIR(Tyr) and pHER-2(Tyr) represents IP with respective antibodies followed by IB with pTyr antibodies.
as §1, with “28” for “27”, “(C) heregulin (30” for “with insulin (50”, “ng/ml)” for “ng/ml) or”
FIG. 29 is a blot showing Tyr176-phosphorylation regulates AKT plasma membrane localization. MCF7 cells were transfected with control or Ack1-specific siRNAs (40 nM) for 48 h and treated with heregulin for 40 mins. Cell lysates were fractionated and IB with indicated antibodies.
FIG. 34 is a blot showing Tyr176-phosphorylation of AKT is PI3K-independent. MCF-7 cells were pretreated with LY294002 (10 μM, 1 h) followed by heregulin for 40 mins. Cell lysates were fractionated and membrane fraction was subjected to IB with indicated antibodies.
Cell fractionation, immunoprecipitations and kinase assay. […]

| Substance | time of optimal AKT Tyr-176 phosphorylation and plasma membrane accumulation [min] |
| --- | --- |
| heregulin | 40 |
| insulin: growth factor ligand used to stimulate cells | 30 |

From US8557516B2, “AKT tyrosine 176 phosphorylation cancer biomarker” (H. Lee Moffitt Cancer Center and Research Institute, Inc., priority 2009, dated 2013)
